# Results reported in a melting point compilation (Tetko et al.; mined from patent text by program, amines drawn as free bases though some values may be those of a salt).
row,melting point [°C],SMILES
1,288 to 289,CNC(=O)c1ccccc1Nc1nc(Nc2ccc3c(c2)OCCN(C)C3=O)ncc1Cl
2,148 to 150,CCCC1CCC=CCCCC(=O)OCCN1C(=O)OCC1c2ccccc2-c2ccccc21 (stereo unspecified)
3,127 to 129,CCc1c(N2CCC(C(N)c3ccccn3)C2)c(F)c(N)c2c(=O)c(C(=O)O)cn(C3CC3F)c12 (stereo unspecified)
4,222,ClC(Cl)=C1OC(C(Cl)(Cl)Cl)Oc2ccc(-c3nnn[nH]3)cc21 (stereo unspecified)
5,167 to 170,Cc1cccc(NS(=O)(=O)c2ccc(OCc3nc(-c4ccccc4)oc3C)cc2)c1C(=O)O
6,118 to 119,CCOC(=O)c1ccc(-c2nc(COc3ccc(COc4nn(-c5ccccc5)cc4/C=C\c4csc(CC)n4)cc3OC)c(C)o2)s1
7,180 to 183,N#Cc1c(N2CCc3ccccc3CC2)nc(COC2CCCCO2)[nH]c1=O (stereo unspecified)
8,32 to 34,C[C@H]1CCCC(C)(C)[C@@H]1[C@H](O)c1ccccc1
9,85.5 to 87.5,CC12CCCCC1CCC1C2CCC2(C)C(NCc3ccccc3)CCC12 (stereo unspecified)
10,260,O=c1ncc(Cl)cn1Cn1cc(Cl)cnc1=O
11,178 to 179,CCCCN1C(=O)C2CC(c3ccc(N)cc3)(C2)C1=O
12,110 to 115,CCN1CCCC1CNC(=O)c1cc(S(N)(=O)=O)c(OC)c2c1OCCO2 (stereo unspecified)
13,140 to 150,COc1ccc2[nH]cc(CC3=CCCN(CCCC(=O)c4cccs4)C3)c2c1
14,257 to 258,CC(c1n[nH]c(=O)[nH]1)N1CCC[C@H](O[C@H](C)c2cc(C(F)(F)F)cc(C(F)(F)F)c2)[C@@H]1c1ccccc1 (stereo partly specified)
15,190,O=C(Nc1cccc(Cl)c1)N1CCc2cc(S(=O)(=O)N3CCN(c4cccc(Cl)c4)CC3)ccc21
16,228 to 233,Nc1ccn2nc(-c3cccnc3)nc2c1
17,165 to 166,COC(=O)C1=CC(=O)CC(c2ccc(Cl)c(OC)c2F)N1 (stereo unspecified)
18,108,CNC(=O)N(OC)c1ccc(Oc2ccc3sncc3c2)cc1
19,181,CCOC(=O)CC1(c2ccccc2OCC)C(=O)Nc2ccc(Cl)cc21 (stereo unspecified)
20,174 to 175,CC(c1cc2cc(Cl)ccc2o1)N(O)C(N)=O (stereo unspecified)
21,104 to 106,NC(=O)CCCN(CCCC1CCCCC1)C(=O)Nc1ccccc1
22,100,CC(C)OP(=O)(Cc1c(C(C)(C)C)cc(O)cc1C(C)(C)C)OC(C)C
23,170 to 172,NS(=O)c1ncnc2c1ccn2C1CC(O)C(CO)O1 (stereo unspecified)
24,65 to 70,CC1(C)[C@H](C=C(Cl)C(F)(F)F)[C@@H]1C(=O)NCc1cccc2c1CCCc1ccccc1-2 (relative stereo)

row,melting point [°C],SMILES
1,71 to 74,CN(C)C(=O)n1cc(C(=O)C2CSC(c3cccnc3)N2)c2ccc(OCc3ccc(F)cc3)cc21 (stereo unspecified)
2,261 to 262,O=C(O)c1ccc(C(=C2SCCCS2)c2ccccc2)cc1
3,107 to 109,CCOC(=O)c1cn2c(n1)SCC2
4,> 250,O=C(O)C1=CSC2C(=Cc3cn4c(n3)CCCCC4)C(=O)N12 (stereo unspecified)
5,173 to 175,COc1ncccc1-c1cccn2nc(Nc3ccc(C4CCN(CC(=O)N(C)C)CC4)cc3)nc12
6,35 to 37,CCCCOC(=O)C(=O)Nc1ccccn1
7,119 to 120,CCN1C(=O)c2sccc2N(C)c2ncccc21
8,186,O=[N+]([O-])c1ccc(N2CCN(CCCN3c4cccc5cccc(c45)S3(=O)=O)CC2)cc1
9,178 to 179,CC(C)OC(=O)c1cc(NC(=O)c2c(Cl)c(Cl)c(Cl)c(Cl)c2C(=O)O)ccc1Cl
10,106 to 111,CN(C)C(=O)c1cn(C)c(=O)cc1Nc1ccc(I)cc1F
11,98 to 100,ON=C(c1ccc(Cl)cc1)c1ccc(Cl)cc1Cl
12,132,C1=Cc2cc(/C=C/c3ccc4c(c3)C=C4)ccc21
13,120 to 123,CN(C)NC(=O)N(C)C1c2ccccc2Oc2ccccc21
14,169 to 173,C=S1c2ccccc2N(CCN2CCOCC2)C(=O)C1c1ccc(Cl)cc1 (stereo unspecified)
15,115,O=C(NC(=O)c1ccco1)C(=O)Oc1ccc([N+](=O)[O-])cc1
16,245 to 250,Cc1nc2ccc(Nc3nccc(-c4ccc(N5CCNCC5)nc4)n3)cc2[nH]1
17,230 to 231,Cc1nc2c(o1)-c1c(SC(C)C)sc(C(N)=O)c1CC2
18,168 to 170,CCOC(=O)c1c(CC(=O)O)n(-c2ccc(OC(F)(F)F)cc2)c2ccc(Oc3ccc(CCl)cn3)cc12
19,159 to 160,CCc1ccc(Sc2nn(-c3ccc(OC)cc3)c(=O)c(C#N)c2C)cc1
20,> 260,CCOC(=O)c1cnc2ccc(SC)cc2c1O
21,127,N#CC(C#N)(CC=C(Br)Br)Cc1ccc(OC(F)(F)F)cc1
22,322 to 323,O=c1[nH]c(-c2ccc(F)cc2)nc2ccc(CN3CCOCC3)cc12
23,216 to 218,CCC1c2cccn2-c2ccc(F)cc2N1S(=O)(=O)c1cc(C)c(O)c(C)c1 (stereo unspecified)
24,199,COc1ccc(C(=O)O)cc1C1(C)CCCCC1

row,melting point [°C],SMILES
1,172 to 173,COc1cccc(C(=O)c2c(N)sc3c2CCN(Cc2ccccc2)C3)c1OC
2,95 to 102,COc1cc2c(cc1Nc1ncc(Cl)c(Nc3ccc(N4CCOCC4)cc3OC)n1)CCN(C[C@H](O)C(F)(F)F)CC2
3,131 to 133,CCCCc1ncc(C(C)CC(=O)O)n1Cc1ccccc1Cl (stereo unspecified)
4,92 to 93,CC(C)(C)c1nc(N)nc(C(C)(C)C)c1O
5,210 to 216,Cn1ccc(=O)c(OCc2ccccc2)c1C(=O)c1cccnc1
6,190 to 191,CCS(=O)(=O)Nc1nc(CN2CCC(OC(c3ccccc3)c3ccccc3)CC2)cs1
7,218 to 221,Cc1nc2c(O)c(CCC(=O)c3ccccc3F)c(C(=O)N(C)C)cc2n1C
8,135 to 137,O=C1C2CCCC2=Nc2ccccc2N1Cc1ccccc1F (stereo unspecified)
9,184 to 186,CNc1nc(-c2cccc(-c3cncc(SC)c3)c2)c2cc(OC)c(OC)cc2n1
10,245 to 247,Cc1c(-c2ccc(F)cc2)[nH]c(N2CCOCC2)c1C#N
11,298 to 300,CC(=Cc1c(-c2ccccc2)nc2sc(C)nn12)C(=O)O
12,172 to 174,CCCCCCCCCCCCCCCCNc1ccc(C(=O)NS(=O)(=O)C(F)(F)F)cc1
13,193,CN(c1cccc2cc(-c3nccs3)[nH]c12)S(=O)(=O)c1ccsc1CSCC(=O)O
14,285 to 286,CCn1ncc2c1ncc1c(=O)[nH]c3cc(C)nn3c12
15,141 to 142,COc1cc(CC(C)NC(=O)c2ccccc2)cc2c1OC(C)(C)C2 (stereo unspecified)
16,139 to 141,O=c1cccc2c([N+](=O)[O-])cccc2n1
17,140 to 141,CCOC(=O)C1=C(C)NC(CCn2ccnc2)=C(C(=O)OCC)C1c1ccccc1[N+](=O)[O-] (stereo unspecified)
18,207 to 213,O=c1c2ccccc2sc2cccc(Oc3cc(Cl)cc(Cl)c3)c12
19,140,CC(C=O)=CC=CC(C)=CC=CC=C(C)C1OCC(C)(C)CO1
20,204 to 206,CC(=O)NC[C@H]1CN(c2ccc(N3CCC(=C(C#N)n4ccnc4C)CC3)c(F)c2)C(=O)O1
21,> 250,CC(C)c1nc(O)c(Br)c(O)n1
22,115,COC(=O)c1sc(-c2ccccc2)cc1NC(C)=O
23,119 to 123,COc1cc2ccccc2c(OC)c1C(=O)O
24,203 to 206,N#Cc1cccc2c1CC(=NN)c1cccc(F)c1S2

row,melting point [°C],SMILES
1,91 to 93,CCc1nc([N+](=O)[O-])c(CBr)n1C
2,74 to 80,COc1ccccc1NC(=O)c1sccc1S(=O)(=O)Nc1onc(C)c1Br
3,153 to 155,CCCN(CCC)CC1CCCN(CCNC(=O)N2c3ccccc3NC(=O)c3c2ccn3C)C1 (stereo unspecified)
4,> 270,CCOC(=O)c1ccc(C(=O)Nc2ccc3c(c2)N(C)C(=O)C(C)(C)C(=O)N3C)cc1
5,165 to 172,C[C@@H]1CN(CCCn2c3ccc(O)cc3c3c4c(c(-c5ccccc5Cl)cc32)C(=O)NC4=O)C[C@H](C)N1
6,79 to 80,CC(C)(C)c1nnc(S)o1
7,140 to 141,O=C(O)CCCCNC(=O)c1ccc(Cl)cc1O
8,93 to 95,CCOC(=O)CNC(=O)[C@H](CSCc1ccccc1)NC(=O)OCc1ccccc1
9,85 to 86,CCOC(=O)c1cc2ccc3sc4ccccc4c3c2n1C
10,236 to 240,COc1cccc(OC)c1C(=O)Nc1ccc(C(=O)O)cc1
11,172 to 173,CCCCc1nc2c([nH]c(=O)c3ccccc32)s1
12,114 to 116,COC(=O)c1cccc(C)c1S(=O)(=O)Cl
13,92,O=S(CC1CO1)c1ncc(Cl)cn1 (stereo unspecified)
14,108 to 109,Nc1ncccc1Sc1ccccc1
15,156 to 157,COc1cc2c(cc1OC)C(C)Cn1c-2cc(=Nc2c(C)cc(C)cc2C)n(C)c1=O (stereo unspecified)
16,175,CC(C)(C)OC(=O)N1CCC(Nc2nccc(-c3c(-c4ccc(F)cc4)nc4occn34)n2)CC1
17,115 to 118,CC(C)(SSc1ccccc1C(=O)Nc1ccc(S(N)(=O)=O)cc1)C(N)C(=O)O (stereo unspecified)
18,161 to 165,Cc1cc(C)nc(N(C=S)c2ccccc2)n1
19,213 to 215,CSc1ccc(-c2nc(SC)c(C#N)c(=O)n2-c2ccc(Br)cc2)cc1
20,181,CC(CS)C(=O)NC(CC(N)=O)C(=O)O (stereo unspecified)
21,148 to 151,O=[N+]([O-])c1ccccc1S(=O)(=O)NOCc1ccccc1
22,107 to 108,CCCNC(=O)Oc1ccc(C(O)(CC)c2ccc(F)cc2)cc1 (stereo unspecified)
23,156 to 157,CC(Cc1ccccc1)C1CC=C2C3=C(CCC21C)C1(C)CCC(O)CC1CC3 (stereo unspecified)
24,96 to 99,COC(=O)Nc1cccc2c1C(=O)C1(O)c3ccc(C(C)C)cc3OC21O (stereo unspecified)

row,SMILES,melting point [°C]
1,Cc1ccc(C2=NOC(c3cc(Cl)cc(Cl)c3)(C(F)(F)F)C2)cc1Cl (stereo unspecified),97 to 99
2,NCc1nnc2n1-c1ccc(Cl)cc1C(c1ccccc1)=NC2,168 to 172
3,Cc1ccc(S(=O)(=O)NC(=O)N2CC2C#N)cc1 (stereo unspecified),156 to 158
4,O=C(Cn1nnnc1S)NO,105 to 107
5,CC(C)CN(Cc1nc(-c2ncn3c2CN(C)C(=O)c2ccccc2-3)no1)CC(C)C,170 to 172
